The values that follow come from patent US9757383B2, “Cyclohexylamine derivatives having β2 adrenergic agonist and M3 muscarinic antagonist activities” (ALMIRALL, S.A., priority 2011, dated 2017).

Assay [1] deals with human adrenergic beta2 receptor (Homo sapiens (Human), UniProt P07550). In words: Human adrenergic β2 receptor binding assay (3H-CGP12177, Sf9 cell membranes). The following applies: 0.6 nM 3H-CGP12177, membranes from Sf9 cells. How it is done:
Test 1: Human Adrenergic β1 and β2 Receptor Binding Assays
The study of binding to human adrenergic beta1 and beta2 receptors was performed using commercial membranes prepared from Sf9 cells where they are overexpressed (Perkin Elmer). The membrane suspensions (16 μg/well for beta1 and 5 μg/well for beta2) in assay buffer (75 mM Tris/HCl with 12.5 mM MgCl2 and 2 mM EDTA pH=7.4) were incubated with 0.14 or 0.6 nM of 3H-CGP12177 (Amersham) for beta 1 and beta 2 receptors respectively in a final volume of 250 μl, in GFC Multiscreen 96 well plates (Millipore) previously treated with assay buffer containing 0.3% PEI (Sigma). Non specific binding was measured in the presence of 1 μM propanolol. Incubation was maintained for 60 minutes at room temperature and with gentle shaking. The binding reactions were terminated by filtration and washing with 2.5 volumes of Tris/HCl 50 mM pH=7.4. The affinity of each test compound to the receptor was determined by using ten different concentrations ran in duplicate. IC50s were calculated using Activity Base software from IDBS and the four parameters-log equation.

Assay [2] addresses human muscarinic M3 receptor (Homo sapiens (Human), UniProt P20309). Kind of assay: Human muscarinic M3 receptor binding assay ([3H]-NMS, CHO-K1 cell membranes). The following applies: 1 nM [3H]-NMS, membranes from CHO-K1 cells. How it is done:
Test 2: Human Muscarinic M1, M2, M3, M4 and M5 Receptors Binding Assays
The study of binding to human muscarinic M1, M2, M3, M4 and M5 receptors was performed using commercial membranes (Perkin Elmer) prepared from CHO-K1 cells. Radioligand binding experiments were conducted in 96 polypropylene well plates in a total volume of 200 μl. All reagents were dissolved in assay binding buffer (PBS with calcium and magnesium, SIGMA), except compounds that were dissolved in DMSO 100%. Non-specific binding (NSB) was measured in the presence of 1 μM atropine. [3H]-NMS was used as the radioligand at a concentration of 1 nM for M2, M3 and M5 and 0.3 nM for M1 and M4. […]
After an incubation period of two hours with gentle shaking, 150 μl of the reaction mix were transferred to 96 GF/C filter plates (Millipore), previously treated with wash buffer (Tris 50 mM; NaCl 100 mM; pH: 7.4), containing 0.05% PEI (Sigma) during one hour. […] After drying 30 min, 30 μl of OPTIPHASE Supermix were added to each well and radioactivity quantified using a Microbeta microplate scintillation counter.
The affinity of each test compound to the receptors was determined by using ten different concentrations ran in duplicate. IC50s were calculated using Activity Base software from IDBS and the four parameters-log equation.

human muscarinic M3 receptor, sequence (P20309 whole entry): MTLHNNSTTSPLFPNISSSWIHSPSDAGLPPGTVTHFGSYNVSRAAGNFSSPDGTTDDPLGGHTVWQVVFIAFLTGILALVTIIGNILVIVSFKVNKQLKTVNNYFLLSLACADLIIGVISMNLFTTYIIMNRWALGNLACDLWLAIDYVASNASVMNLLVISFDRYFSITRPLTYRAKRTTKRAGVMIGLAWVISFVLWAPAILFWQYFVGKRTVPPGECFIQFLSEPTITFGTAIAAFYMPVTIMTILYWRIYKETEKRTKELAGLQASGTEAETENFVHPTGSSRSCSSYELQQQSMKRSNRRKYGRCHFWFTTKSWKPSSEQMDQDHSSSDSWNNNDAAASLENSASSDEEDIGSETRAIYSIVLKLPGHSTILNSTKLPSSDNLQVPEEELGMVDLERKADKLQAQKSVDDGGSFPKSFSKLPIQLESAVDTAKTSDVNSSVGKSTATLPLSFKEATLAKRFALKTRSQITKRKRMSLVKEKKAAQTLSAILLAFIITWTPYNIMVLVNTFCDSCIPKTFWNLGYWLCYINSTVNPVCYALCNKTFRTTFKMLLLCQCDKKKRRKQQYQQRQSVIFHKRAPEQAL

What is called IC50 is the concentration at which inhibition is half-maximal. A lower IC50 goes with greater potency in that assay. As for `CN(CCCn1c(=O)[nH]c2cc(CNC[C@H](O)c3ccc(O)c4[nH]c(=O)ccc34)ccc21)[C@H]1CC[C@H](OC(=O)C(O)(c2cccs2)c2cccs2)CC1` (relative stereo) [Example 2, trans-4-[{3-[5-({[(2R)-2-hydroxy-2-(8-hydroxy-2-oxo-1,2-dihydroquinolin-5-yl)ethyl]amino}methyl)-2-oxo-2,3-dihydro-H-benzimidazol-1-yl]propyl}(methyl)amino]cyclohexyl hydroxy(di-2-thienyl)acetate dihydrofluoride], the IC50 worked out at 120 nM in assay [1] and 0.4 nM in assay [2].
Consider “trans-4-{[2-({2-[4-(2-{[(2R)-2-hydroxy-2-(8-hydroxy-2-oxo-1,2-dihydroquinolin-5-yl)ethyl]amino}propyl)phenoxy]acetyl}amino)ethyl]amino}cyclohexyl hydroxy(di-2-thienyl)acetate dihydrofluoride [Example 20]”, for which the IC50 is 3.1 nM in assay [1] and 3.6 nM in assay [2].
